Each structure is given as a SMILES string.

This assay concerns Radical scavenging activity. Description: Antioxidant activity assessed as DPPH free radical scavenging activity at 20 uM after 30 min by UV-vis spectrophotometric analysis relative to propyl gallate. The format is functional. On the technique in general: The DPPH test is a chemical assay of radical scavenging.

Regarding `COc1ccc(-c2oc3cc(O)cc(O)c3c(=O)c2O[C@@H]2O[C@H](CO)[C@@H](O)[C@H](O)[C@H]2O)cc1OC`, the Activity turned out to be 49.1%.
The figure for `NCCCCCCCCCCCC(=O)O` is 87.1%; for `O=c1c(O[C@@H]2O[C@H](CO)[C@@H](O)[C@H](O)[C@H]2O)c(-c2ccc(O)c(O)c2)oc2cc(O)cc(O)c12` it is 71.8%.

For the origin of these results see ChEMBL document CHEMBL3046854, “Lupeol-3-O-decanoate, a new triterpene ester from Cadaba farinosa Forssk. growing in Saudi Arabia” (Med Chem Res, 2013).
